# Measured values published in patent US11033539B2, “Compounds of formulas (VII), (VIII), (IX), (XI), (XII), (XIII), and (XIV) as muscarinic receptor 4(M4) antagonists for treating neurological diseases” (Neurocrine Biosciences, Inc., priority 2015, dated 2021).
# Target: human M4 receptor (Homo sapiens (Human), UniProt P08173)
# Assay: Radioligand (tritiated N-methylscopolamine) binding assay, M4
# Conditions: Ki against the M4 receptor; membranes from CHO cells expressing human M4; tritiated N-methylscopolamine 1.5 nM; read-out: Ki
# Protocol: Binding affinity (Ki) of compounds was measured by inhibition of radioligand binding to membranes from CHO cells expressing human M1, M2, M3, M4 and M5 receptors. Membranes were prepared by nitrogen cavitation and differential centrifugation as previously described (Hoare et al., Mol. Pharmacol. 2003 March; 63(3): 751-65). The radioligand employed was tritiated N-methylscopolamine, used at a concentration of 1.5 nM. A dose-response of twelve concentrations of compound was used, ranging from 10 μM to […]. The assay buffer was 50 mM HEPES, 100 mM NaCl, 5 mM MgCl2, 1 mM ethylenediaminetetraacetic acid, pH-adjusted to pH 7.4. Membranes, radioligand and compound were incubated together for 90 minutes at 37° C., in a total volume of 150 μl in a 96-well plate. Receptor-bound radioligand was then collected by harvesting the assay over glass fiber filters pretreated with polyethylenimine to trap the cell membranes, using rapid vacuum filtration. Harvesting and radioactivity counting was conducted as previously described (see, e.g., Hoare et al., Mol. Pharmacol. 2003 63(3):751-65); Erratum at Mol. Pharmacol. 2005 July; 68(1): 260).
# Sequence of human M4 receptor (P08173 whole entry): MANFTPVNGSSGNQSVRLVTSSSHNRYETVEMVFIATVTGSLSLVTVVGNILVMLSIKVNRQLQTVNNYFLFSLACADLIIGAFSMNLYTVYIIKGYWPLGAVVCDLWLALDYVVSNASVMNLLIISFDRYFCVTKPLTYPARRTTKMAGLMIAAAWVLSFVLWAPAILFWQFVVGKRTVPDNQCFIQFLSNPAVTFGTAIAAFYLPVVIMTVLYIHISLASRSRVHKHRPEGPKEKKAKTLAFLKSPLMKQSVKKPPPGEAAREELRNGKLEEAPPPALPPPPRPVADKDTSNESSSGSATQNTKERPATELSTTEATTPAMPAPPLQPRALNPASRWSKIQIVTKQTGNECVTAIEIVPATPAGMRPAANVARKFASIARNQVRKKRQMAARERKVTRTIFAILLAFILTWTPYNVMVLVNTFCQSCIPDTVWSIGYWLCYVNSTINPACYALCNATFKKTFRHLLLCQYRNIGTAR
row,Compound,Ki
1,4-(benzyloxy)-N-{2-[1-(pyridin-3-ylmethyl)piperidin-4-yl]ethyl}benzamide [11-20],0.1 to 1 µM
2,4-phenoxy-N-{2-[1-(3-phenylpropyl)piperidin-4-yl]ethyl}benzamide [11-28],0.1 to 1 µM
3,"CC(=O)O[C@H](CNC(=O)N1CCN(c2ccc(F)c(C#N)c2)C[C@H]1C)C1CCN(Cc2ccccc2)CC1 [3-2, (1S)-1-(1-benzylpiperidin-4-yl)-2-{[(2R)-4-(3-cyano-4-fluorophenyl)-2-methylpiperazine-1-carbonyl]amino}ethyl acetate]",0.01 to 0.1 µM
4,"C[C@@H]1CN(c2ccc(F)c(C#N)c2)CCN1C(=O)N(C)C[C@@H](O)C1CCN(Cc2ccccc2)CC1 [3-3, (2R)-N-[(2S)-2-(1-benzylpiperidin-4-yl)-2-hydroxyethyl]-4-(3-cyano-4-fluorophenyl)-N,2-dimethylpiperazine-1-carboxamide]",0.1 to 1 µM
5,"C[C@@H]1CN(c2ccc(F)c(C#N)c2)CCN1C(=O)N(C)CCC1CCN(Cc2ccccc2)CC1 [3-4, (2R)-N-[2-(1-benzylpiperidin-4-yl)ethyl]-4-(3-cyano-4-fluorophenyl)-N,2-dimethylpiperazine-1-carboxamide]",0.1 to 1 µM
6,"CO[C@H](CNC(=O)N1CCN(c2ccc(F)c(C#N)c2)C[C@H]1C)C1CCN(Cc2ccccc2)CC1 [3-6, (2R)-N-[(2S)-2-(1-benzylpiperidin-4-yl)-2-methoxyethyl]-4-(3-cyano-4-fluorophenyl)-2-methylpiperazine-1-carboxamide]",0.01 to 0.1 µM
7,"C[C@@H]1CN(c2ccc(OC(F)(F)F)c(C#N)c2)CCN1C(=O)NCCC1CCN(Cc2ccc(I)cc2)CC1 [3-7, (2R)-4-[3-cyano-4-(trifluoromethoxy)phenyl]-N-(2-{1-[(4-iodophenyl)methyl]piperidin-4-yl}ethyl)-2-methylpiperazine-1-carboxamide]",0.01 to 0.1 µM
8,"C[C@@H]1CN(c2nccc(C#N)n2)CCN1C(=O)NCCC1CCN(Cc2ccccc2)CC1 [3-15, (2R)-N-[2-(1-benzylpiperidin-4-yl)ethyl]-4-(4-cyanopyrimidin-2-yl)-2-methylpiperazine-1-carboxamide]",0.01 to 0.1 µM
9,"C[C@@H]1CN(c2cc(F)c(F)c(F)c2)CCN1C(=O)NCCC1(CO)CCN(Cc2ccccc2)CC1 [3-20, (2R)-N-{2-[1-benzyl-4-(hydroxymethyl)piperidin-4-yl]ethyl}-2-methyl-4-(3,4,5-trifluorophenyl)piperazine-1-carboxamide]",0.01 to 0.1 µM
10,"COc1ccnc(N2CCN(C(=O)NCCC3CCN(Cc4ccccc4)CC3)[C@H](C)C2)n1 [4-2, (2R)-N-[2-(1-benzylpiperidin-4-yl)ethyl]-4-(4-methoxypyrimidin-2-yl)-2-methylpiperazine-1-carboxamide]",0.1 to 1 µM
11,"Cc1cc(N2CCN(C(=O)NCCC3CCN(Cc4ccccc4)CC3)[C@H](C)C2)ccc1C#N [4-4, (2R)-N-[2-(1-benzylpiperidin-4-yl)ethyl]-4-(4-cyano-3-methylphenyl)-2-methylpiperazine-1-carboxamide]",0.1 to 1 µM
12,"COc1cccnc1N1CCN(C(=O)NCCC2CCN(Cc3ccccc3)CC2)[C@H](C)C1 [4-8, (2R)-N-[2-(1-benzylpiperidin-4-yl)ethyl]-4-(3-methoxypyridin-2-yl)-2-methylpiperazine-1-carboxamide]",0.1 to 1 µM
13,"Cc1ccc(N2CCN(C(=O)NCCC3CCN(Cc4ccccc4)CC3)[C@H](C)C2)cn1 [4-9, (2R)-N-[2-(1-benzylpiperidin-4-yl)ethyl]-2-methyl-4-(6-methylpyridin-3-yl)piperazine-1-carboxamide]",0.1 to 1 µM
14,"C[C@@H]1CN(c2cncc(C#N)c2)CCN1C(=O)NCCC1CCN(Cc2ccccc2)CC1 [4-23, (2R)-N-[2-(1-benzylpiperidin-4-yl)ethyl]-4-(5-cyanopyridin-3-yl)-2-methylpiperazine-1-carboxamide]",0.1 to 1 µM
15,"C[C@H]1CN(c2cc(F)c(F)c(F)c2)CCN1C(=O)NCCC1CCN(Cc2ccccc2)CC1 [4-24, (2S)-N-[2-(1-benzylpiperidin-4-yl)ethyl]-2-methyl-4-(3,4,5-trifluorophenyl)piperazine-1-carboxamide]",0.01 to 0.1 µM
